The structures appear in SMILES notation.

Assay [1] has as its target GDP-bound NRAS wild-type protein (Homo sapiens, UniProt P01111). Put plainly: Binding to NRAS by surface plasmon resonance (SPR), Single Cycle Kinetics. As to conditions: KD ratio, GDP-bound NRAS wild-type vs GDP-bound KRAS wild-type, SPR. A general note: In SPR one partner is held on a chip, and binding of the other changes the refractive index at the surface.
In assay [2] the target is GDP-bound HRAS wild-type protein (Homo sapiens, UniProt P01112). Put plainly: Binding to HRAS by surface plasmon resonance (SPR), Single Cycle Kinetics. The conditions noted are these: KD ratio, GDP-bound HRAS wild-type vs GDP-bound KRAS wild-type, SPR.
Sequence of GDP-bound HRAS wild-type protein (P01112 whole entry): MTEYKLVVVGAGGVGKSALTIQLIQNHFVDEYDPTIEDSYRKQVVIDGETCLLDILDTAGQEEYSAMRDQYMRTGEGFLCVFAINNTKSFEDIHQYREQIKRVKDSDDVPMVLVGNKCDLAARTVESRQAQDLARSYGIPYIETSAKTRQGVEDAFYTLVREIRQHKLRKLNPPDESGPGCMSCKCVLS

Sequence of GDP-bound NRAS wild-type protein (P01111 whole entry): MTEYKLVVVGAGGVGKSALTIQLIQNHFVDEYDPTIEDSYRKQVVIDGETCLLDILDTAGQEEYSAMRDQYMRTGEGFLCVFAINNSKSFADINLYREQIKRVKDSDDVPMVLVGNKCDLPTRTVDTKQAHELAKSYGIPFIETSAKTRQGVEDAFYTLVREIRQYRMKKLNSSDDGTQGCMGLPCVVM

On to `CC[C@H](C)[C@@H]1NC(=O)[C@H](CC(C)C)N(C)C(=O)C[C@@H](C(=O)N(C)C)N(C)C(=O)[C@H](C2CCCC2)N(C)C(=O)C2(CCC2)NC(=O)[C@@H]2C[C@H](C)CN2C(=O)[C@H](CCc2ccc(C(F)(F)F)c(Cl)c2)NC(=O)CN(C)C(=O)[C@H](Cc2ccc(C)cc2)N2CC/C=C\C[C@@H](C2=O)N(C)C(=O)CN(C)C1=O` [PP1852], for which, in assay [1], the “NRAS/KRAS (ratio of KD value for NRAS to KD value for KRAS)” value was “A (a compound having 10 or more and less than 20 is denoted as A)”. Also, in assay [2], the “HRAS/KRAS (ratio of KD value for HRAS to KD value for KRAS)” value is “B (a compound having 3 or more and less than 10 is denoted as B)”.

Turning to `CC[C@H](C)[C@@H]1NC(=O)[C@H](CC(C)C)N(C)C(=O)C[C@@H](C(=O)N(C)C)N(C)C(=O)[C@H](C2CCCC2)N(C)C(=O)C2(CCC2)NC(=O)[C@@H]2C[C@@H](C)CN2C(=O)[C@H](CCc2ccc(C(F)(F)F)c(Cl)c2)NC(=O)CN(C)C(=O)[C@H](Cc2ccc(C)cc2)N2CC/C=C\C[C@@H](C2=O)N(C)C(=O)CN(C)C1=O` [PP1854], the “NRAS/KRAS (ratio of KD value for NRAS to KD value for KRAS)” value in assay [1] is “A (a compound having 10 or more and less than 20 is denoted as A)”. Moreover, the “HRAS/KRAS (ratio of KD value for HRAS to KD value for KRAS)” value in assay [2] was “A (a compound having 10 or more and less than 20 is denoted as A)”.

Consider `CC[C@H](C)[C@@H]1NC(=O)[C@H](CC)N(C)C(=O)C[C@@H](C(=O)N(C)CC)N(C)C(=O)[C@H](C2CCCC2)N(C)C(=O)C2(CCC2)NC(=O)[C@@H]2C[C@@H](C)CN2C(=O)[C@H](CCc2ccc(C(F)(F)F)c(OC)c2)NC(=O)CN(C)C(=O)[C@H](Cc2ccc(C)cc2)N2CC/C=C\C[C@@H](C2=O)N(C)C(=O)CN(C)C1=O` [PP1855], for which the “NRAS/KRAS (ratio of KD value for NRAS to KD value for KRAS)” value in assay [1] is “AA (a compound having 20 or more is denoted as AA)”. Moreover, in assay [2], the “HRAS/KRAS (ratio of KD value for HRAS to KD value for KRAS)” value was “A (a compound having 10 or more and less than 20 is denoted as A)”.

As to `CC[C@H](C)[C@@H]1NC(=O)[C@H](CC)N(C)C(=O)C[C@@H](C(=O)N(C)C)N(C)C(=O)[C@H](C2CCCC2)N(C)C(=O)C2(CC(C)(C)C2)NC(=O)[C@@H]2C[C@H](C)CN2C(=O)[C@H](CCc2cc(F)c(C(F)(F)F)c(F)c2)NC(=O)CN(C)C(=O)[C@H](Cc2ccc(C)cc2)N2CC/C=C\C[C@@H](C2=O)N(C)C(=O)CN(C)C1=O` [PP1856], the “NRAS/KRAS (ratio of KD value for NRAS to KD value for KRAS)” value in assay [1] is “A (a compound having 10 or more and less than 20 is denoted as A)”. In assay [2], the “HRAS/KRAS (ratio of KD value for HRAS to KD value for KRAS)” value is “A (a compound having 10 or more and less than 20 is denoted as A)”.

Turning to `CCC[C@H]1C(=O)N[C@@H]([C@@H](C)CC)C(=O)N(C)CC(=O)N(C)[C@H]2C/C=C\CCN(C2=O)[C@@H](Cc2ccc(C)cc2)C(=O)N(C)CC(=O)N[C@@H](CCc2ccc(C(F)(F)F)c(OC)c2)C(=O)N2C[C@@H](C)C[C@H]2C(=O)NC2(CCC2)C(=O)N(C)[C@@H](C2CCCC2)C(=O)N(C)[C@H](C(=O)N(C)C)CC(=O)N1C` [PP1857], the “NRAS/KRAS (ratio of KD value for NRAS to KD value for KRAS)” value in assay [1] was “A (a compound having 10 or more and less than 20 is denoted as A)”. Moreover, the “HRAS/KRAS (ratio of KD value for HRAS to KD value for KRAS)” value in assay [2] was “B (a compound having 3 or more and less than 10 is denoted as B)”.

Consider `CCC[C@H]1C(=O)N[C@@H]([C@@H](C)CC)C(=O)N(C)CC(=O)N(C)[C@H]2C/C=C\CCN(C2=O)[C@@H](Cc2ccc(C)cc2)C(=O)N(C)CC(=O)N[C@@H](CCc2ccc(C(F)(F)F)c(OC)c2)C(=O)N2C[C@H](C)C[C@H]2C(=O)NC2(CCC2)C(=O)N(C)[C@@H](C2CCCC2)C(=O)N(C)[C@H](C(=O)N(C)C)CC(=O)N1C` [PP1859], for which, in assay [1], the “NRAS/KRAS (ratio of KD value for NRAS to KD value for KRAS)” value was “A (a compound having 10 or more and less than 20 is denoted as A)”. In addition, the “HRAS/KRAS (ratio of KD value for HRAS to KD value for KRAS)” value in assay [2] is “A (a compound having 10 or more and less than 20 is denoted as A)”.
